# Structures can show the parent of a compound that is named as a salt. The source made the active and inactive calls.
# Molecular target: T1, Rac GTPase-activating protein 1 (Homo sapiens, UniProt Q9H0H5)
# T1 sequence (Q9H0H5 whole entry): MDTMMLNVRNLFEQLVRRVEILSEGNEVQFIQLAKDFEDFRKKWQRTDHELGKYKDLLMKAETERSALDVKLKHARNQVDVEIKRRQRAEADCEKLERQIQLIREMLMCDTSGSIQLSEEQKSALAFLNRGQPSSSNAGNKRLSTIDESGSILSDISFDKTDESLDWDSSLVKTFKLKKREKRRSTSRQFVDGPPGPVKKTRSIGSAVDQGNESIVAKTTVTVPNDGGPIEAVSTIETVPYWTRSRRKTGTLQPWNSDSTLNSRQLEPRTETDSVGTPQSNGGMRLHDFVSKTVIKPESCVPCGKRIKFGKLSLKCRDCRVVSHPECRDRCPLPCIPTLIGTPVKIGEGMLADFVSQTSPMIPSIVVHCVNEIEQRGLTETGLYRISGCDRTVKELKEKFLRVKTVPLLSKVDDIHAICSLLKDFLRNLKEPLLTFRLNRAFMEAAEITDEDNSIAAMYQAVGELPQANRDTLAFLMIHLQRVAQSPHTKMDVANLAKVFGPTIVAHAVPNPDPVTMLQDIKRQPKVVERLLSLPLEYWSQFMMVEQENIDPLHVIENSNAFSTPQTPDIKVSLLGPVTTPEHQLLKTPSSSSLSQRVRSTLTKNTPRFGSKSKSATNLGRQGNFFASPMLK
# Test: MgcRacGAP GTPase-activating activity inhibitors, confirmation, biochemical, ADP Hunter fluorescence, primary and confirmatory (AID 624330)
# Format: functional
# Conditions: not given
row,SMILES,IC50
1,COc1ccc(CN2CCN(Cc3ccco3)CC2)cc1OC,69.2 µM (active)
2,Cc1ccn2c(Nc3ccc4c(c3)OCO4)c(-c3ccc(O)cc3)nc2c1,39.7 µM (active)
3,Cc1[nH]c2ccccc2c1-c1csc(NC(=O)CSCCO)n1,122 µM (active)
4,O=C(c1cccnc1)N1CCN(Cc2cccc(Br)c2)CC1,117 µM (active)
5,COc1ccc(OC(=O)C2CC(=O)N(c3ccc(C)cc3)C2)cc1 (stereo unspecified),48.3 µM (active)
6,Cc1c(N=Nc2ccc(O)cc2)c(=O)n(-c2ccccc2)n1C,19.8 µM (active)
7,COc1ccc(NC2CCCN(C(=O)C3(C)CCCCC3)C2)cc1 (stereo unspecified),80.7 µM (active)
8,O=C(CNC(=O)c1ccccc1Br)N/N=C/c1ccc(O)cc1,58.7 µM (active)
9,Oc1ccc(/C=N/N=C/c2ccc(O)cc2)cc1,77.6 µM (active)
10,Oc1cc(Br)ccc1/C=N/c1ccc(N2CCCCC2)cc1,5.88 µM (active)

# Molecular target: Cytochrome P450 2C9 (Homo sapiens, UniProt P11712)
# Sequence (P11712 whole entry): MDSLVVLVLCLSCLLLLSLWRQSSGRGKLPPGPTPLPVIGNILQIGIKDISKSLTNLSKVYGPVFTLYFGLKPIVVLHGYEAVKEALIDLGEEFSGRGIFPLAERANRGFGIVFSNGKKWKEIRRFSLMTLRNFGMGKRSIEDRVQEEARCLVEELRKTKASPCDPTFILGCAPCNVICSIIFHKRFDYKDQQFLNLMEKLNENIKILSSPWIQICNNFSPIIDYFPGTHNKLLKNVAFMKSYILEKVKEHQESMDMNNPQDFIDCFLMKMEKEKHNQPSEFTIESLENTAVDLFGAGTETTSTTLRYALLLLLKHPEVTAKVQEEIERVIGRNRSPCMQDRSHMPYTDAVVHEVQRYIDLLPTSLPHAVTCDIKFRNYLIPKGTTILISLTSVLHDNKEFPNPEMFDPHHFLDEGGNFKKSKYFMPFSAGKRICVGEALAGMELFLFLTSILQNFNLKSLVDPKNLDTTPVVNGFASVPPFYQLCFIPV
# Conditions: not given
row,SMILES,AC50
1,CCOC(=O)C1=C(CN2c3ccccc3CC2C)NC(=O)NC1c1ccccc1 (stereo unspecified),25.1 µM (inconclusive)
2,N#C/C(=C\N1CCNC1=S)C(=O)c1ccc2ccccc2c1,3.16 µM (inconclusive)
3,COc1ccc(C(=O)N2CCC3(CCN(Cc4ccc(C#N)cc4)CC3)CC2)cc1,31.6 µM (inconclusive)

# Molecular target: Cytochrome P450 3A4 (Homo sapiens, UniProt P08684);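 also: CYP3A4 tested as one member of a cytochrome P450 panel screen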
# Sequence (P08684 whole entry): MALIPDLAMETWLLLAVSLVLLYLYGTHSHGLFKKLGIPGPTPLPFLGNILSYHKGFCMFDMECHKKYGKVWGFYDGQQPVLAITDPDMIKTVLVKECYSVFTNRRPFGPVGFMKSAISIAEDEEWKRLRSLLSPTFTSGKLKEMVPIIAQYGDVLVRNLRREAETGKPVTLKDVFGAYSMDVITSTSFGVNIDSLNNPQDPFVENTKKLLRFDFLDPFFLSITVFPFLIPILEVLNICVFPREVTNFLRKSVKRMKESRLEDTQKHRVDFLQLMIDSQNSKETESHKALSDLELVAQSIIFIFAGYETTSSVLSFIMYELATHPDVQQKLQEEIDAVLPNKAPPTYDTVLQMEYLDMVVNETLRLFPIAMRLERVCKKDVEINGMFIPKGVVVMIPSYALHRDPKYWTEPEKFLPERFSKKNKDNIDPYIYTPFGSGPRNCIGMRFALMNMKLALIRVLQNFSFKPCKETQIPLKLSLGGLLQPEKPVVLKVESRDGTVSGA
# Conditions: not given
row,SMILES,AC50
1,CCC/C=C(\CCC)C(NC(=O)c1ccc(-c2ccccc2)cc1)c1ccc(C(=O)OC)cc1 (stereo unspecified),6.31 µM (inconclusive)

# Molecular target: T2, Zinc finger protein mex-5 (Caenorhabditis elegans, UniProt Q9XUB2)
# T2 sequence (Q9XUB2 whole entry): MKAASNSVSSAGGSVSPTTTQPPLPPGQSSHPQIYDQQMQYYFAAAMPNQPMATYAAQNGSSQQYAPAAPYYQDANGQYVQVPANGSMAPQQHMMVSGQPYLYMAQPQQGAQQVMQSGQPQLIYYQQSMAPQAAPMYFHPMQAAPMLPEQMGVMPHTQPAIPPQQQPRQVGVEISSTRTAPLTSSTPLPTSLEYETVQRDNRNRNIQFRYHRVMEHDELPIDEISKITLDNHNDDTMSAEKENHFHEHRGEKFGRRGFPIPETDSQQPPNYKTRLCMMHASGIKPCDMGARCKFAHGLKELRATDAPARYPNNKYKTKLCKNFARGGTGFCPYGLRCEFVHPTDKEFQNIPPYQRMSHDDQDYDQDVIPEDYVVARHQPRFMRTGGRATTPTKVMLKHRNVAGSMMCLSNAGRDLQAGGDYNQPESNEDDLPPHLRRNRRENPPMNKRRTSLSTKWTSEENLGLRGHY
# Test: MEX-5/TCR-2 RNA interaction inhibitors, dose response, biochemical, C. elegans, fluorescence polarization (AID 1960)
# Conditions: not given
row,SMILES,EC50
1,N#Cc1c(N)n(-c2ccc(C(=O)O)cc2)c2nc3ccccc3nc12,> 300 µM (not active)
2,O=C(NCCOc1ccccc1)C1Nc2ccc(OC(F)(F)F)cc2C2C=CCC12 (stereo unspecified),> 300 µM (not active)
3,CCCc1c(O)nc(SCC(=O)N2CCCCC2)nc1O,> 300 µM (not active)
4,Cc1nn2c(N3CCOCC3)c3c(nc2c1-c1ccccc1)CCCC3,> 300 µM (not active)
5,COC(=O)c1ccc(-n2c(C)cc(C(=O)COC(=O)CNS(=O)(=O)c3ccc(C)cc3)c2C)cc1,> 300 µM (not active)
6,O=c1/c(=C\c2ccc(O)cc2)sc2nc(-c3ccccc3)c(-c3ccccc3)n12,> 300 µM (inconclusive)

# Molecular target: T3, RNA-binding protein pos-1 (Caenorhabditis elegans, UniProt G5EF15)
# T3 sequence (G5EF15 whole entry): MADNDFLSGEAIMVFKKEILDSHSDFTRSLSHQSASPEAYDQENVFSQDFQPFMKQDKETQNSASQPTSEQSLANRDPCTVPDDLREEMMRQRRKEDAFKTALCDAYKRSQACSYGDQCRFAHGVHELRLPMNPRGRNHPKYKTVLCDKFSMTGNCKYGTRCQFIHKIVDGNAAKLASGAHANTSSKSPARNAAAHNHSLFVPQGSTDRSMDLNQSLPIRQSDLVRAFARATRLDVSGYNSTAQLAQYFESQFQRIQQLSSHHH
# Test: inhibitors of POS-1/mex-3 RNA binding, dose response, biochemical, fluorescence polarization (AID 1964);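 also: purified POS-1 fused to maltose binding protein made in E. coli; potency of compounds blocking POS-1 binding to fluorescent RNA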
# Conditions: not given
row,SMILES,EC50
1,N#Cc1c(N)n(-c2ccc(C(=O)O)cc2)c2nc3ccccc3nc12,> 300 µM (not active)
2,O=C(NCCOc1ccccc1)C1Nc2ccc(OC(F)(F)F)cc2C2C=CCC12 (stereo unspecified),> 300 µM (not active)
3,CCCc1c(O)nc(SCC(=O)N2CCCCC2)nc1O,> 300 µM (not active)
4,Cc1nn2c(N3CCOCC3)c3c(nc2c1-c1ccccc1)CCCC3,> 300 µM (not active)
5,COC(=O)c1ccc(-n2c(C)cc(C(=O)COC(=O)CNS(=O)(=O)c3ccc(C)cc3)c2C)cc1,> 300 µM (not active)
6,O=c1/c(=C\c2ccc(O)cc2)sc2nc(-c3ccccc3)c(-c3ccccc3)n12,> 300 µM (not active)

# Molecular target: T4, Heat shock factor protein 1 (Mus musculus, UniProt P38532)
# T4 sequence (P38532 whole entry): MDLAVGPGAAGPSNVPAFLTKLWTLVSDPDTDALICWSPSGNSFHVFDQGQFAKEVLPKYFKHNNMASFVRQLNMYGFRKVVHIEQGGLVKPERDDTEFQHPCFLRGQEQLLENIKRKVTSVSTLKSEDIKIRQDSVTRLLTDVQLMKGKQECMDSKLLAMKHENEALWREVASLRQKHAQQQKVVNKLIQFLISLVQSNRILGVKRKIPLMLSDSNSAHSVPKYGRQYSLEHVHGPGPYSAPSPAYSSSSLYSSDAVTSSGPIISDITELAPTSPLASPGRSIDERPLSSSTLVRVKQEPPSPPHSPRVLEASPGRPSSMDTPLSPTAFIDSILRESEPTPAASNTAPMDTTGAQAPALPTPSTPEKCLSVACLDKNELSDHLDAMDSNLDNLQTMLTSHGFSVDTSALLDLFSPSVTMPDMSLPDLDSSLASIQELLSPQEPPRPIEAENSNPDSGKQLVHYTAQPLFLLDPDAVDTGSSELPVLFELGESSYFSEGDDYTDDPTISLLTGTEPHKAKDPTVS
# Test: inhibition of MG132-induced HSE-luciferase signal, confirmation, cell-based, NIH3T3, luminescence, dose retest (AID 2382);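 also: NIH3T3 fibroblasts with HSF1-driven luciferase reporter stressed by proteasome inhibitor MG132; luminescence from HSF1-driven luciferase expression after 8 hours of MG132 stress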
# Format: functional
# Conditions: not given
row,SMILES,EC50
1,CCO/C(C)=C1/SC(=S)NC1=O,> 195 µM (not active)
2,CC(C)(C)[C@H]1C=C(C(=O)Nc2ccccc2)O[C@@H](OCCCCO)C1,5.49 µM (active)
3,CCN1CCc2c(OCc3ccccc3)cccc2C1=O,37.3 µM (active)
4,Cc1nc2sc3c(NCc4ccco4)ncnc3c2c2c1COC(C)(C)C2,> 195 µM (not active)
5,COc1cc(N2N=C(c3ccccc3)CC2c2ccccc2)c(C=O)cc1C=O (stereo unspecified),> 195 µM (not active)
6,CC(C)(C)NC(=O)c1c(F)c(F)c(F)c(F)c1F,> 195 µM (not active)
7,CCOC(=O)c1c(NC(=O)CSc2nnc(-c3c[nH]c4ccccc34)n2C)sc2c1CCCC2,> 195 µM (not active)
8,COc1cccc(N(C(=O)c2cccs2)c2nc3ccccc3s2)c1,> 195 µM (not active)
9,COc1nc(-c2ccccc2)ccc1-c1noc(COc2ccccc2)n1,> 195 µM (not active)
10,CC1(C)CC(=O)C(=NNc2ccc(OC(F)F)cc2)C(=O)C1,> 195 µM (not active)
11,Cc1cc(C)c(NC(=O)Nc2ccc3c(c2)OCO3)c(C)c1,> 195 µM (not active)
12,Cc1cc(C)cc(OCC(O)CN2CC(C)OC(C)C2)c1 (stereo unspecified),32.9 µM (active)

# Tested on: not listed separately
# Test: inhibitors of intracellular T. cruzi replication, confirmation, NIH3T3 host cells, beta-gal luminescence (AID 2044);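 also: intracellular parasites grown in NIH/3T3 mouse fibroblasts as host cells; luminescent beta-galactosidase reporter signal from transgenic T. cruzi replicating inside host cells; inhibitors lower the luminescence signal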
# Format: functional, cell-based
# Conditions: not given
row,SMILES,EC50
1,Cc1ccc2nc(Cl)c3cc(C(=O)N(CCN(C)C)Cc4ccco4)sc3c2c1,0.123 µM (active)

# Tested on: not listed separately
# Test: Luminescence Cell-Based Dose Retest to Confirm Inhibitors of Cancer Stem Cells. [Related pubchem assays (depositor defined):AID2717, AID2721]
# Format: functional
# Conditions: Homo sapiens
row,SMILES,AC50
1,CSc1ccc2c(c1)C(N1CCN(C)CC1)Cc1ccccc1S2 (stereo unspecified),11.1 µM (active)
2,Cc1ccc(-c2cc(C(=O)NCc3ccc4c(c3)OCO4)no2)cc1,> 195 µM (inactive)
3,Cn1cccc1-c1nc2ccccc2n1Cc1ccccc1,10.4 µM (active)
4,COc1ccc(C(=O)CSc2nnc(CN3CCCCC3)n2-c2ccc(Cl)cc2)cc1OC,2.91 µM (active)
5,COc1cccc(O)c1CN1CCC(C(=O)Nc2ccc(-c3cccc(C)c3)cc2)CC1,6.71 µM (active)
6,Cc1ccccc1OCC(O)Cn1c2ccccc2c2ccccc21 (stereo unspecified),5.66 µM (active)
7,Clc1ccc(-c2nnc(-c3ccccc3)c(-c3ccccc3)n2)cc1,10.1 µM (active)
8,CCCCCCSc1ccc(-c2nc3cnccn3c2NCCCC)cc1,3.59 µM (active)
9,Cc1ccc2nc(Cl)c3cc(C(=O)N(CCN(C)C)Cc4ccco4)sc3c2c1,1.86 µM (active)
10,CC/C(=C(\c1ccccc1)c1ccc(OCCN(C)C)cc1)c1ccccc1 [TAMOXIFEN CITRATE],4.53 µM (active)

# Tested on: not listed separately
# Test: cytotoxicity toward NIH3T3 fibroblasts, dose response, counter-screen, cell-based, ATP luminescence, mouse fibroblasts (AID 2010);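 also: cells exposed to compound for about 90 hours before reading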
# Format: functional
# Conditions: not given
row,SMILES,EC50
1,Cc1ccc2nc(Cl)c3cc(C(=O)N(CCN(C)C)Cc4ccco4)sc3c2c1,> 60 µM (not active)

# Molecular target: T5, Cytochrome P450 1A2 (Homo sapiens, UniProt P05177);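 also: PubChem cytochrome P450 panel assay, CYP1A2 panel member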
# T5 sequence (P05177 whole entry): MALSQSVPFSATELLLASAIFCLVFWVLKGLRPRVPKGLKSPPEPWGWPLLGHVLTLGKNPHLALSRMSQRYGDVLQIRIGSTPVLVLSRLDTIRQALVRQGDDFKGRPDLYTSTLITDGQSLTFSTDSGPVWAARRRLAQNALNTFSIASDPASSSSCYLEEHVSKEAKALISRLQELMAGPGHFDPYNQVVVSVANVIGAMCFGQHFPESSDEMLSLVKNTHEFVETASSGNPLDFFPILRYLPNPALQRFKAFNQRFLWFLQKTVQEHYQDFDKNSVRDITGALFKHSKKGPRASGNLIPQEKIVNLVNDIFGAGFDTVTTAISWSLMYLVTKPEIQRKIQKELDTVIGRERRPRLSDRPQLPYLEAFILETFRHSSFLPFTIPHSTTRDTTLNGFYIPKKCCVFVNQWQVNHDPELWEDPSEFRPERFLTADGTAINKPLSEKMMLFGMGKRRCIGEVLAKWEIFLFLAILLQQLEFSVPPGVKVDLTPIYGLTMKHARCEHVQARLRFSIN
# Conditions: not given
row,SMILES,AC50
1,Cc1c(Nc2ncccc2C(=O)O)cccc1C(F)(F)F,12.6 µM (inconclusive)
2,CN(CCC(=O)O)C1=Nc2ccc(Cl)cc2C(c2ccccc2)=[N+]([O-])C1,0.0631 µM (inconclusive)
3,O=C(c1cnccn1)N1CCC[C@@]2(CCN(c3ccccn3)C2)C1,20 µM (inconclusive)
4,CCOC(=O)C1=C(CN2c3ccccc3CC2C)NC(=O)NC1c1ccccc1 (stereo unspecified),22.4 µM (inconclusive)
5,NC[C@H](CP(=O)(O)O)c1ccc(Cl)cc1,39.8 µM (inconclusive)
6,Cc1cnc(CNc2ncncc2-c2ccc(C(=O)N(C)C)cc2)cn1,20 µM (inconclusive)
7,N#C/C(=C\N1CCNC1=S)C(=O)c1ccc2ccccc2c1,1.58 µM (inconclusive)
8,CCC/C=C(\CCC)C(NC(=O)c1ccc(-c2ccccc2)cc1)c1ccc(C(=O)OC)cc1 (stereo unspecified),0.631 µM (inconclusive)
9,COc1ccc(-c2ccc(/C=C3\C(=O)N(c4ccccc4)N=C3c3ccccc3)o2)c([N+](=O)[O-])c1,5.01 µM (inconclusive)
10,N#Cc1cccc(NC(=O)N2CCCC3(CCN(C(=O)c4cc(C(F)(F)F)cc(C(F)(F)F)c4)CC3)C2)c1,6.31 µM (inconclusive)
11,COc1ccc(C(=O)N2CCC3(CCN(Cc4ccc(C#N)cc4)CC3)CC2)cc1,12.6 µM (inconclusive)

# From ChEMBL document CHEMBL1201862, “PubChem BioAssay data set” (2004)
